Test results: US4610994A, “1,2,3-triazole anticonvulsant drugs” (priority 1984, dated 1986)
Several values for one entry are separate records, joined by “and”; a condition that tells them apart may be missing. Equal entries are not always repeated. Entries after “also recorded” stand apart in the source; their conditions may differ. Where two headings read alike, the source gives them in different places.

Assays:
[1] = system: p-nitroanisole O-demethylase; assay: effect of chronic administration on liver p-nitroanisole O-demethylase; format: in vivo, rats
Procedure: (§1) Phase VII studies of Compound 10 included five-day LD3, five-day tolerance studies, and effect of chronic administration on the liver microsomal enzyme system. The five-day oral LD3 of Compound 10 is <300 mg/kg in male rats and >300 mg/kg in female rats.
(§2) Thus, the estimated five-day LD3 for Compound 10 is <300 mg/kg in male rats and >300 but <1000 mg/kg in female rats.

[2] = system: subcutaneous Metrazol seizures; assay: subcutaneous Metrazol Seizure Threshold Test (sc Met) in rats
Procedure: (§3) All animals were allowed free access to both food (S/L Custom Lab Diet-7) and water, except when they were removed from their cages for the experimental procedure.
(§4) The drugs were administered either orally or intraperitoneally in a volume of 0.01 ml/g body weight in mice and 0.04 ml/10 g in rats. All tests were conducted at the previously determined time of peak drug effect.
(§5) The profile of anticonvulsant activity for each substance was established by five tests: one electrical and four chemical. The electrical test employed was the maximal electroshock seizure pattern test. […] Except for the sc Strych Test, these tests measure the ability of anticonvulsants to afford complete protection against threshold seizures induced by the subcutaneous injection of the CD97 of the convulsant agent.
(§6) All convulsants were administered subcutaneously into a loose fold of skin on the back of the neck in a volume of 0.01 ml/g body weight in mice; Metrazol was injected in a volume of 0.02 ml/10 g body weight in rats. The convulsant drugs were administered at the previously determined time of peak anticonvulsant action of the drug under study. […] Except for strychnine, absence of a five-second episode of clonic spasms (threshold seizure) was taken as protection. In the case of strychnine, complete abolition of the hindleg tonic extension was taken as protection.

in vivo [3] = settings: mouse, ip
in vivo [4] = settings: mouse
Procedure: as §3, §4
(§7) The profile of toxicity for each test drug was established by the following procedures: Firstly, the minimal neurotoxic dose (TD50) was determined by the rotorod procedure at the time of peak neurotoxic effect. When a normal mouse is placed on a knurled rod one inch in diameter rotating at a speed of six rpm it can maintain its equilibrium for long periods of time. Neurological deficit is indicated by inability of the mouse to maintain its equilibrium for one minute in each of three trials on this rotating rod. Neurological deficit in rats is indicated by ataxia, loss of placing response and muscle tone.

[5] = system: subcutaneous Metrazol seizures; assay: subcutaneous Metrazol Seizure Threshold Test (sc Met) in mice; settings: for ED97: sc Met
Procedure: as §3, §4, §5, §6

[6] = five-day oral LD3 in rats; format: in vivo
Procedure: as §1, §2

[7] = system: subcutaneous Strychnine seizures; format: in vivo, mice (male albino, CF No. 1); settings: mice i.p.; Compound 10 up to 300 mg/kg
Procedure: as §3, §4, §5, §6

[8] = system: maximal electroshock seizures; assay: five-day tolerance study in rats (MES test); format: in vivo
Procedure: as §1, §2

[9] = system: subcutaneous Picrotoxin seizures; assay: subcutaneous Picrotoxin Seizure Threshold Test (sc Pic) in mice; format: in vivo, mice (male albino, CF No. 1); settings: mice i.p.; Compound 10 up to 300 mg/kg
Procedure: as §3, §4, §5, §6

[10] = maximal electroshock seizure (MES) pattern test in rats; settings: rat, in vivo, po, Safety ratio (TD3/ED97), rats, MES
Procedure: as §3, §4, §5

[11] = system: maximal electroshock seizures; assay: as above
Procedure: as §3, §4, §5

[12] = 24-hour lethality (LD50) in mice i.p.
cytochrome C reductase = assay: effect of chronic administration on liver cytochrome C reductase; format: in vivo, rats
Procedure: as §1, §2

in vivo [13] = settings: mouse; remark: listed apart in the source
Procedure: as §3, §4, §5, §6

cytochrome P-450 = assay: effect of chronic administration on liver microsomal cytochrome P-450; format: in vivo, rats
Procedure: as §1, §2

[14] = minimal neurotoxicity (ataxia, loss of placing response and muscle tone) in rats; settings: for TD3: oral
Procedure: as §3, §4, §7

[15] = system: maximal electroshock seizures; assay: maximal electroshock seizure (MES) pattern test in mice; settings: for ED97 / Safety ratio (TD3/ED97): MES
Procedure: as §3, §4, §5

[16] = Phase III toxicity profile (overt signs and symptoms) in mice i.p.
Procedure: (§8) The profile of toxicity for each test drug was established by the following procedures: Firstly, the minimal neurotoxic dose (TD50) was determined by the rotorod procedure at the time of peak neurotoxic effect. When a normal mouse is placed on a knurled rod one inch in diameter rotating at a speed of six rpm it can maintain its equilibrium for long periods of time. Neurological deficit is indicated by inability of the mouse to maintain its equilibrium for one minute in each of three trials on this rotating rod. […] The HD50 represents the median dose at which 50% of animals lose their righting reflex.

[17] = system: subcutaneous Bicuculline seizures; assay: subcutaneous Bicuculline Seizure Threshold Test (sc Bic) in mice; format: in vivo, mice (male albino, CF No. 1); settings: mice i.p.; Compound 10 up to 300 mg/kg
Procedure: as §3, §4, §5, §6

hexobarbital sleep time = hexobarbital sleep time after chronic administration in rats; format: in vivo
Procedure: as §1

[18] = oral absorption in mice from oral/i.p. ratios; format: in vivo
Text: The extent of oral absorption can be determined from the ratio of the oral ED50/i.p. […] The oral TD50/i.p. TD50 and oral ED50/i.p.

[19] = loss of righting reflex (HD50) in mice i.p.; set-up: species or system mice (male albino, CF No. 1); settings: mouse, in vivo, ip
Procedure: as §8

in vivo [20] = settings: mouse, po
Procedure: as §3, §4, §5

[21] = system: maximal electro-shock seizure (MES) and subcutaneous pentylenetetrazole (Metrazole) seizure threshold (scMet); assay: Phase I anticonvulsant screening (MES test and scMet test); format: in vivo, mouse; settings: at effective dose levels (Class I) or 300 mg/kg (8, 13)
[22] = rats, acute (single dose) control group
[23] = mice, i.p., 95% confidence interval
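Wherever Rotorod TD50 is given: mice on rotorod: neurological deficit scored when the animal cannot keep balance for 1 min in every one of three trials on a 1-inch knurled rod turning at 6 rpm.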
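Wherever Rotorod toxicity is given: mice on rotorod: neurological deficit scored when the animal cannot keep balance for 1 min in every one of three trials on a 1-inch knurled rod turning at 6 rpm.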
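Wherever TPE by the rotorod test is given: mice on rotorod: neurological deficit scored when the animal cannot keep balance for 1 min in every one of three trials on a 1-inch knurled rod turning at 6 rpm.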
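Wherever time of peak effect (TPE), rotorod toxicity test is given: mice on rotorod: neurological deficit scored when the animal cannot keep balance for 1 min in every one of three trials on a 1-inch knurled rod turning at 6 rpm.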

Clc1ccc(-n2nncc2-c2cccnc2)cc1 [Compound 10, 1-(para-chlorophenyl)-5-(3-pyridyl)-1H-1,2,3-triazole]
p-nitroanisole O-demethylase ([1]; chronically treated rats): 0.640±0.098 n moles/mg/min
p-nitroanisole O-demethylase [1, 22]: 0.261±0.035 n moles/mg/min
increase in p-nitroanisole O-demethylase ([1]; rats, chronic vs acute): 145%
ED97 ([2]; oral, sc Met): > 10000
Safety ratio (TD3/ED97) ([2]; oral, sc Met): 0.002
sc Met ED50 ([2]; p.o.): 329.18 mg/kg
LD50 at 24 h (in vivo [3]): 569 mg/kg
TD50 (in vivo [4]; ip): 245 mg/kg
TD50 (in vivo [4]; po): 729 mg/kg
oral ED50/i.p. ED50 ratio, sc Met ([5]; mice): 5.03
toxicity of doses giving 97% protection, sc Met test ([5]; mice, i.p.): toxic doses are required
ED97 ([5]; mice, i.p.): 900
sc Met ED50 [5, 23]: 26.95 mg/kg and 26.95(9.89-55.08) mg/kg
ED97 ([5]; mice, oral): 980
sc Met ED50 ([5]; mice, p.o.): 135.67 mg/kg
potency by the sc Met test in mice relative to rats ([5]; oral administration): about 21/2
five-day oral LD3 ([6]; male rats): < 300 mg/kg
five-day oral LD3 ([6]; rat, in vivo, po, 7200 min): > 300 mg/kg
toxicity, male vs female rats ([6]; rats, chronic): more toxic in male than in female rats
effectiveness by the sc Strych test [7]: ineffectiveness; also recorded: ineffective in doses up to 300 mg/kg
MES test, animals protected ([8]; acute (single dose, 50 mg/kg) control group, 50 mg/kg): 6 of 8 protected and 6 of 8 rats protected
MES test, animals protected ([8]; chronic-treated group, five daily doses of 50 mg/kg): 1 of 8 protected
tolerance to the anticonvulsant effects ([8]; five days): significant tolerance occurs within this period of time
effectiveness by the sc Pic test [9]: ineffectiveness; also recorded: ineffective in doses up to 300 mg/kg
selectivity ratio [10]: 0.07
ED97 ([11]; Rattus norvegicus, po): 215 mg/kg
ED50 ([11]; Rattus norvegicus, po, read-out: MES ED50): 49.9 mg/kg
97% protection by the MES and sc Met tests in nontoxic doses ([11]; rats, oral): do not provide 97% protection
TPE by the MES and sc Met tests ([11]; rats, p.o.): four
LD50/HD50 ratio [12]: 1.08
LD50/TD50 ratio [12]: 2.33
cytochrome C reductase (cytochrome C reductase; chronically treated rats): 219±24 n moles/mg/min
cytochrome C reductase (cytochrome C reductase; [22]): 157±11 n moles/mg/min
increase in cytochrome C reductase (cytochrome C reductase; rats, chronic vs acute): 40%
selectivity ratio (in vivo [13]; ip): 9.07
selectivity ratio (in vivo [13]; po): 5.37
cytochrome P-450 (cytochrome P-450; chronically treated rats): 0.988±0.096 n moles/mg
cytochrome P-450 (cytochrome P-450; [22]): 0.720±0.054 n moles/mg
increase in liver cytochrome P-450 (cytochrome P-450; rats, chronic vs acute): 37%
neurotoxicity in rats relative to mice ([14]; oral administration): approximately 16 times
TD50 ([14]; rat, in vivo, po): 44.5 mg/kg
TD3 ([14]; rats, MES): 16
TD3 ([14]; rats, sc Met): 16
TPE by the toxicity test ([14]; rats, p.o.): two
TD50 ([14]; rats, p.o., 95% confidence interval): 44.48 (32.78-62.61) mg/kg
toxicity (300 mg/kg, four hours after administration): one of two animals
Rotorod toxicity (300 mg/kg, thirty minutes after administration): all four animals
time of peak effect (TPE), rotorod toxicity test (mice, i.p.): 60 min
TD3 (mice, i.p., MES): 175
TD3 (mice, i.p., sc Met): 175
Rotorod TD50 [23]: 244.51(221.82-275.17) mg/kg and 244.51(222.82-275.17) mg/kg
TD3 (mice, oral, MES): 173
TD3 (mice, oral, sc Met): 173
TPE by the rotorod test (mice, p.o.): six
TD50 (mice, p.o., 95% confidence interval): 729.08 (492.47-1009.17) mg/kg
oral ED50/i.p. ED50 ratio, MES ([15]; mice): 2.00
toxicity of doses giving 97% protection, MES or sc Met test ([15]; mice and rats, oral): toxic doses are required to protect 97% of animals
time of peak effect (TPE), anticonvulsant tests ([15]; mice i.p., anticonvulsant tests (MES, sc Met)): 30 min
mice protected in the MES test at nontoxic doses ([15]; mice, i.p.): 97%
protective index (TD50/ED50) by the MES test ([15]; mice, i.p.): 3.72
ED97 ([15]; mice, i.p.): 145
Safety ratio (TD3/ED97) ([15]; mice, i.p.): 1.2
MES ED50 [15, 23]: 65.76 mg/kg and 65.76(51.82-83.19) mg/kg
ED97 ([15]; mice, oral): 275
Safety ratio (TD3/ED97) ([15]; mice, oral): 0.6
MES ED50 ([15]; mice, p.o.): 131.67 mg/kg
potency relative to phenobarbital, MES test ([15]; mice, p.o.): 1/6
potency relative to phenytoin, MES test ([15]; mice, p.o.): 1/15
Profile of acute toxicity, 1 x TD50 ([16]; 1TD50): decreased motor activity, rotorod toxicity, ataxia, and decreased respiration; also recorded: normal after 24 hours; also recorded: normal at 24 hrs
Profile of acute toxicity, 2 x TD50 ([16]; 2TD50): cyanosis, muscle relaxation, and loss of righting reflex; also recorded: dead after 24 hours
Profile of acute toxicity, 4 x TD50 ([16]; 4TD50): displayed all the symptoms characteristic of those given 1TD50 and 2TD50's of the test drug; however, the symptoms were more intense; also recorded: dead 4 hours after drug administration and the other was dead at 24 hours
effectiveness by the sc Bic test [17]: ineffectiveness; also recorded: ineffective in doses up to 300 mg/kg
hexobarbital sleep time (hexobarbital sleep time; acute (single dose) control group): 16.3 ± 1.2 min
hexobarbital sleep time (hexobarbital sleep time; chronic-treated group): 15.0 ± 2.0 min
oral absorption [18]: adequately absorbed in mice after oral administration
HD50 (righting reflex) [19]: 525.98(473.77-564.48) mg/kg
time of peak toxicity (TPE), righting reflex [19]: 6 h
TD50 ([19]; HD50 (righting reflex)): 526 mg/kg
selectivity ratio (in vivo [20]): 5.54
signs of neurological deficit [21]: do not exhibit significant signs of neurological deficit
